Experimental data reported in patent US20120184542A1, “PYRIDO PYRIMIDINES” (priority 2011, published 2012).

Tests used:
Human DYRK1B = target: T1, Human DYRK1B (Homo sapiens, UniProt Q9Y463); assay: DYRK1B Kinase TR-FRET (IMAP-Tb) Assay; type: biochemical; settings: for inhibition at 10 µM: read-out: % inhibition of DYRK1B at 10 μM test compound concentration; for IC50: TR-FRET (IMAP-Tb), ATP 70 μM, 37° C. 60 minutes, read-out: Enzyme IC50 (μM) DYRK1B
T1 construct: purchased Invitrogen PR8350B (former PV4649)

Human DYRK1A = target: T2, Human DYRK1A (Homo sapiens, UniProt Q13627); assay: DYRK1A Kinase TR-FRET (IMAP-Tb) Assay; type: biochemical; settings: for inhibition at 10 µM: read-out: % inhibition of DYRK1A at 10 μM test compound concentration; for IC50: TR-FRET (IMAP-Tb), ATP 70 μM, 37° C. 60 minutes, read-out: Enzyme IC50 (μM) DYRK1A
T2 construct: purchased Invitrogen PV3997
Source text: The kinase TR-FRET (IMAP-Tb) assay uses a fluorescence labeled substrate peptide in the kinase reaction. Upon phosphorylation by the kinase, phosphopeptide is produced, which will be detected by the binding solution provided in IMAP TR-FRET binding kit. After the completion of the kinase reaction, the reaction will be stopped by adding the binding solution containing terbium tracer. This tracer is immobilized on the surface of the IMAP beads, which also contain metal ions on the beads that bind to the phospho-groups of the products. Thus the phosphorylated product of the reaction can enter into close proximity to the tracer, producing resonance energy transfer. Due to the long lifetime of terbium (Tb) fluorescence the detection can be run in time resolved mode, which virtually eliminates fluorescence interference from assay components or compounds.
The TR-FRET signal measurement from this assay, given as an IC50 measurement, is a measure of a test compound's ability to interfere with the phosphorylation of the peptide substrate, that is it inhibits the phosphorylation of the substrate peptide by DYRK1A, and is thus a measure of the test compound's ability to inhibit the activity of DYRK1A.
• 1. Human DYRK1A: from Invitrogen. Part #PV3997 • 2. Substrate Peptide: […] • 3. IMAP TR-FRET IPP Explorer Kit: from Molecular Devices. Part #R8157 • 4. Kinase Assay Buffer (KAB): 10 mM HEPES pH 7.0, 50 mM NaCl, 5 mM MgCl2, 1 mM DTT, 1 mM NaVO4, 200 μg/mL BSA (0.02%) • 5. Assay Plate: Remp polypropylene clear 384-well microplate. […] Detection Plate: Costa black 384-well microplate.
• 1. Transfer 1.5 μL of 20× compound solution to each well of an assay plate. • 2. Add to each well 22.5 μL of KAB Buffer. • 3. Add to each well 3 μL of the solution of DYRK1A and ATP. […] Add to each well 3 μL of the substrate peptide. The assay concentration is 1.0 μM • 5. Incubate the assay plates at 37° C. for 60 minutes. • 6. Add 18 μL of Detection Solution (1:800 diluted Progress bead stock, 1:400 diluted Tb stock, 80% Buffer A, and 20% Buffer B) into each well of detection plates. • 7. Transfer 6 μL of assay solution from the assay plate to the detection plate. • 8. Shake detection plates for 30 minutes. • 9. Read plates in Envision with wavelength set at excitation 340 nm for Tb, emission 490 nm, and […].

T1 sequence (Q9Y463 whole entry): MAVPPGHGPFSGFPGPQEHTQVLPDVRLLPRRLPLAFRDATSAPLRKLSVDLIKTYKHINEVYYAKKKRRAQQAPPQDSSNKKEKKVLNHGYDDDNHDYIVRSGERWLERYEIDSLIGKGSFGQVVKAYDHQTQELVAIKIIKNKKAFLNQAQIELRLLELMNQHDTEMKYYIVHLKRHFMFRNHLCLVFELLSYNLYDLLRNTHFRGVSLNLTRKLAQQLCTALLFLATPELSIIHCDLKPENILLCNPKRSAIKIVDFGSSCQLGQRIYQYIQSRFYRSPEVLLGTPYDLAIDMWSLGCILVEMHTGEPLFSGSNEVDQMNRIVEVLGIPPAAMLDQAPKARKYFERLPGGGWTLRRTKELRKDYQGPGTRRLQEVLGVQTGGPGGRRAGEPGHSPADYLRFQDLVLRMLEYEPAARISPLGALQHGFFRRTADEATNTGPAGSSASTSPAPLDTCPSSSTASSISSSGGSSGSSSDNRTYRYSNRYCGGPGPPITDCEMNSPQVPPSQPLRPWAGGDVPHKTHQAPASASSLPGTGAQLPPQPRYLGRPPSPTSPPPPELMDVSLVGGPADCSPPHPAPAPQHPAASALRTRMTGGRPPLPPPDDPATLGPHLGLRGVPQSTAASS

`CCOCCNc1ncc2cc(C(=O)Nc3cc(C(=O)OC)ccc3Cl)c(=O)[nH]c2n1` [Example 42, 4-Chloro-3-{[2-(2-ethoxy-ethylamino)-7-oxo-7,8-dihydro-pyrido[2,3-d]pyrimidine-6-carbonyl]-amino}-benzoic acid methyl ester] was tested, and the inhibition at 10 µM (Human DYRK1B) was 39% and the inhibition at 10 µM (Human DYRK1A) was 60%.
Work on `COC(=O)c1ccc(F)c(NC(=O)c2cc3cnc(OC)nc3[nH]c2=O)c1` [Example 43, 4-Fluoro-3-[(2-methoxy-7-oxo-7,8-dihydro-pyrido[2,3-d]pyrimidine-6-carbonyl)-amino]-benzoic acid methyl ester] yielded an inhibition at 10 µM (Human DYRK1B) of 41% and an IC50 (Human DYRK1A) of 9.8 µM.
`CCN(CC)CCOc1ncc2cc(C(=O)Nc3cc(C(=O)OC)ccc3Cl)c(=O)[nH]c2n1` [Example 45, 4-Chloro-3-{[2-(2-diethylamino-ethoxy)-7-oxo-7,8-dihydro-pyrido[2,3-d]pyrimidine-6-carbonyl]amino}-benzoic acid methyl ester] gave an IC50 (Human DYRK1B) of 0.85 µM and an IC50 (Human DYRK1A) of 0.729 µM.
`COc1ncc2cc(C(=O)Nc3cc(C(=O)NCc4ccc(Cl)cc4)ccc3Cl)c(=O)[nH]c2n1` [Example 46, 2-Methoxy-7-oxo-7,8-dihydro-pyrido[2,3-d]pyrimidine-6-carboxylic acid [2-chloro-5-(4-chloro-benzylcarbamoyl)-phenyl]-amide] showed an IC50 (Human DYRK1B) of 0.192 µM and an IC50 (Human DYRK1A) of 1.16 µM.
`COc1ncc2cc(C(=O)Nc3cc(C(=O)NCc4ccccc4Cl)ccc3Cl)c(=O)[nH]c2n1` [Example 47, 2-Methoxy-7-oxo-7,8-dihydro-pyrido[2,3-d]pyrimidine-6-carboxylic acid [2-chloro-5-(2-chloro-benzylcarbamoyl)-phenyl]-amide] gave an IC50 (Human DYRK1B) of 0.0908 µM and an IC50 (Human DYRK1A) of 0.0343 µM.
`COC(=O)c1ccc(Br)c(NC(=O)c2cc3cnc(OC)nc3[nH]c2=O)c1` [Example 48, 4-Bromo-3-[(2-methoxy-7-oxo-7,8-dihydro-pyrido[2,3-d]pyrimidine-6-carbonyl)-amino]-benzoic acid methyl ester] gave an IC50 (Human DYRK1B) of 0.217 µM and an IC50 (Human DYRK1A) of 0.205 µM.
`COc1ncc2cc(C(=O)Nc3cc(C(=O)OCc4ccccc4)ccc3Cl)c(=O)[nH]c2n1` [Example 50, 4-Chloro-3-[(2-methoxy-7-oxo-7,8-dihydro-pyrido[2,3-d]pyrimidine-6-carbonyl)-amino]-benzoic acid benzyl ester] was tested, and the inhibition at 10 µM (Human DYRK1B) was 3% and the inhibition at 10 µM (Human DYRK1A) was 30%.
Compound `COc1ncc2cc(C(=O)Nc3cc(C(=O)OCc4ccccc4Cl)ccc3Cl)c(=O)[nH]c2n1` [Example 52, 4-Chloro-3-[(2-methoxy-7-oxo-7,8-dihydro-pyrido[2,3-d]pyrimidine-6-carbonyl)-amino]-benzoic acid 2-chloro-benzyl ester] has an IC50 (Human DYRK1B) of 5.25 µM and an IC50 (Human DYRK1A) of 1.19 µM.
`COc1ncc2cc(C(=O)Nc3cc(C(=O)OCc4cccc(Cl)c4)ccc3Cl)c(=O)[nH]c2n1` [Example 53, 4-Chloro-3-[(2-methoxy-7-oxo-7,8-dihydro-pyrido[2,3-d]pyrimidine-6-carbonyl)-amino]-benzoic acid 3-chloro-benzyl ester] gave an IC50 (Human DYRK1B) greater than 10 µM and an inhibition at 10 µM (Human DYRK1A) of 32%.
`COc1ncc2cc(C(=O)Nc3cc(C(=O)N(C)C)ccc3Cl)c(=O)[nH]c2n1` [Example 55, 2-Methoxy-7-oxo-7,8-dihydro-pyrido[2,3-d]pyrimidine-6-carboxylic acid (2-chloro-5-dimethylcarbamoyl-phenyl)-amide] showed an IC50 (Human DYRK1B) of 1.37 µM and an IC50 (Human DYRK1A) of 4.1 µM.
Compound `COc1ncc2cc(C(=O)Nc3cc(C(=O)NCc4cccc(C(F)(F)F)c4)ccc3Cl)c(=O)[nH]c2n1` [Example 59, 2-Methoxy-7-oxo-7,8-dihydro-pyrido[2,3-d]pyrimidine-6-carboxylic acid [2-chloro-5-(3-trifluoromethyl-benzylcarbamoyl)-phenyl]-amide] has an IC50 (Human DYRK1B) of 0.222 µM and an IC50 (Human DYRK1A) of 0.0723 µM.
`COc1ncc2cc(C(=O)Nc3cc(C(=O)N(C)Cc4ccccc4)ccc3Cl)c(=O)[nH]c2n1` [Example 60, 2-Methoxy-7-oxo-7,8-dihydro-pyrido[2,3-d]pyrimidine-6-carboxylic acid [5-(benzyl-methyl-carbamoyl)-2-chloro-phenyl]-amide] gave an IC50 (Human DYRK1B) of 0.357 µM and an IC50 (Human DYRK1A) of 0.561 µM.
For `COc1ncc2cc(C(=O)Nc3cc(C(=O)NCc4cccc(Cl)c4)ccc3C)c(=O)[nH]c2n1` [Example 62, 2-Methoxy-7-oxo-7,8-dihydro-pyrido[2,3-d]pyrimidine-6-carboxylic acid [5-(3-chloro-benzylcarbamoyl)-2-methyl-phenyl]-amide], the IC50 (Human DYRK1B) was 0.437 µM and the IC50 (Human DYRK1A) was 0.119 µM.
In the case of `COc1ncc2cc(C(=O)Nc3cc(C(=O)N(C)Cc4cccc(Cl)c4)ccc3C)c(=O)[nH]c2n1` [Example 63, 2-Methoxy-7-oxo-7,8-dihydro-pyrido[2,3-d]pyrimidine-6-carboxylic acid {5-[(3-chloro-benzyl)-methyl-carbamoyl]-2-methyl-phenyl}-amide], the inhibition at 10 µM (Human DYRK1B) is reported as 28% and the IC50 (Human DYRK1A) is reported as 4.58 µM.
With `CN(Cc1cccc(Cl)c1)C(=O)c1ccc(Cl)c(NC(=O)c2cc3cnc(N4CCCCC4)nc3[nH]c2=O)c1` [Example 64, 7-oxo-2-piperidin-1-yl-7,8-dihydro-pyrido[2,3-d]pyrimidine-6-carboxylic acid {2-chloro-5-[(3-chloro-benzyl)-methyl-carbamoyl]-phenyl}-amide] the inhibition at 10 µM (Human DYRK1B) was 46.6% and the IC50 (Human DYRK1A) was 0.903 µM.
Compound `COc1ncc2cc(C(=O)Nc3cc(C(=O)NCc4ccccn4)ccc3Cl)c(=O)[nH]c2n1` [Example 66, 2-Methoxy-7-oxo-7,8-dihydro-pyrido[2,3-d]pyrimidine-6-carboxylic acid {2-chloro-5-[(pyridin-2-ylmethyl)-carbamoyl]-phenyl}-amide] has an IC50 (Human DYRK1B) of 0.282 µM and an IC50 (Human DYRK1A) of 0.16 µM.
Compound `COc1ncc2cc(C(=O)Nc3cc(C(=O)NCc4cccnc4)ccc3Cl)c(=O)[nH]c2n1` [Example 67, 2-Methoxy-7-oxo-7,8-dihydro-pyrido[2,3-d]pyrimidine-6-carboxylic acid {2-chloro-5-[(pyridin-3-ylmethyl)-carbamoyl]-phenyl}-amide] has an IC50 (Human DYRK1B) of 0.669 µM and an IC50 (Human DYRK1A) of 0.263 µM.
Compound `COc1ncc2cc(C(=O)Nc3cc(C(=O)NCc4ccncc4)ccc3Cl)c(=O)[nH]c2n1` [Example 68, 2-Methoxy-7-oxo-7,8-dihydro-pyrido[2,3-d]pyrimidine-6-carboxylic acid {2-chloro-5-[(pyridin-4-ylmethyl)-carbamoyl]-phenyl}-amide] has an IC50 (Human DYRK1B) of 0.261 µM and an IC50 (Human DYRK1A) of 0.251 µM.
`COc1ncc2cc(C(=O)Nc3cc(C(=O)NCC(C)C)ccc3Cl)c(=O)[nH]c2n1` [Example 79, 2-Methoxy-7-oxo-7,8-dihydro-pyrido[2,3-d]pyrimidine-6-carboxylic acid (2-chloro-5-isobutylcarbamoyl-phenyl)-amide] gave an IC50 (Human DYRK1B) of 1.52 µM and an IC50 (Human DYRK1A) of 0.779 µM.
`CCOC(=O)c1ccc(Cl)c(NC(=O)c2cc3cnc(OC)nc3[nH]c2=O)c1` [Example 82, 4-Chloro-3-[(2-methoxy-7-oxo-7,8-dihydro-pyrido[2,3-d]pyrimidine-6-carbonyl)-amino]-benzoic acid ethyl ester] gave an IC50 (Human DYRK1B) of 1.11 µM and an IC50 (Human DYRK1A) of 0.463 µM.
For `O=C(NCc1cccc(Cl)c1)c1ccc(Cl)c(NC(=O)c2cc3cnc(N4CCC(O)CC4)nc3[nH]c2=O)c1` [Example 92, 2-(4-Hydroxy-piperidin-1-yl)-7-oxo-7,8-dihydro-pyrido[2,3-d]pyrimidine-6-carboxylic acid [2-chloro-5-(3-chloro-benzylcarbamoyl)-phenyl]-amide], the IC50 (Human DYRK1B) was 0.035 µM and the IC50 (Human DYRK1A) was 0.0202 µM.
Compound `CC(C)(C)CNC(=O)c1ccc(Cl)c(NC(=O)c2cc3cnc(N4CCOCC4)nc3[nH]c2=O)c1` [Example 142, 2-Morpholin-4-yl-7-oxo-7,8-dihydro-pyrido[2,3-d]pyrimidine-6-carboxylic acid [2-chloro-5-(2,2-dimethyl-propylcarbamoyl)-phenyl]-amide] has an inhibition at 10 µM (Human DYRK1B) of 44% and an IC50 (Human DYRK1A) of 2.43 µM.
For `O=C(NCc1cccc(Cl)c1)c1cc(NC(=O)c2cc3cnc(N4CCOCC4)nc3[nH]c2=O)c(Cl)cc1F` [Example 144, 2-Morpholin-4-yl-7-oxo-7,8-dihydro-pyrido[2,3-d]pyrimidine-6-carboxylic acid [2-chloro-5-(3-chloro-benzylcarbamoyl)-4-fluoro-phenyl]-amide], the inhibition at 10 µM (Human DYRK1B) was 23% and the IC50 (Human DYRK1A) was 0.205 µM.
